# In paper PMC10141516 (Pharmaceutics, 2023):
# Experiments:
# [1] = Equilibrium solubility test (HPLC); details: thermodynamic from solid
# Protocol: The column used was an Agilent C18 column (5.0 μm, 4.6 × 150 mm). The mobile phase and diluted solution of the content and dissolution studies analyses were prepared with 0.5% triethylamine buffer (v/v, pH 6.8 adjusted with 85% phosphoric acid) and acetonitrile at a ratio of 7:3 (v/v). The mobile phase was filtered through a 0.45-μm polypropylene membrane filter and degassed via sonication. The wavelength, flow rate, and injection volume were set to 205 nm, 1.5 mL/min, and 20 μL, respectively. In the case of the content and dissolution studies, the mobile phase was constantly flowed for 18 min via an isocratic elution method and analyzed.
# The equilibrium solubility test was used to calculate the input amount through the apparent solubility test result, and an excess of the API was placed in each beaker and stirred at 400 rpm. At 0, 12, and 24 h immediately after the overdose, 2 mL samples were taken and filtered through a 0.45-μm regenerated cellulose syringe filter. The supernatant of the filtered solution was taken and diluted with a content analysis diluted solution. […] A calibration test was performed, and the sample was diluted with a diluted solution and prepared at a concentration of 0.05–1 mg/mL.
# [2] = cited from earlier work
# [3] = oral; cited from earlier work
# [4] = Compatibility study API-excipient / API-API (total impurities by HPLC); assay type: physicochemical
# Protocol: The column used was the Gemini C18 column (5.0 μm, 250 mm). […] The mobile phase was filtered through a 0.4 μm polypropylene membrane filter and degassed via sonication. […] The column and sample thermostats were set to 35 °C and 5 °C, respectively. […] The compatibility study was performed using appearance and impurity tests to confirm the interaction between each API and the excipient. Each API was mixed with mannitol, microcrystalline cellulose, lactose, silicified microcrystalline cellulose, calcium hydrogen phosphate anhydrous, pregelatinized starch, sodium starch glycolate, crospovidone, sodium croscarmellose, magnesium stearate, colloidal silicon dioxide, sodium stearyl fumarate, hydroxypropyl cellulose, calcium hydroxide, citric acid, and OPADRY II pink in a 1:1 (w/w) ratio and put into each clear glass vial.
# [5] = Stability study of the APIs in pH buffers (total impurity by HPLC); assay type: physicochemical
# Protocol: The column used was the Gemini C18 column (5.0 μm, 250 mm). Mobile phase A of the impurity study was prepared with KH2PO4 buffer (v/v, solution adjusted to pH 6.0 with 1 M KOH): acetonitrile: methanol = 85: 10: 5 (v/v/v), and mobile phase B was prepared with 90% acetonitrile. The mobile phase was filtered through a 0.4 μm polypropylene membrane filter and degassed via sonication. The diluted solution was prepared with KH2PO4 buffer (v/v, solution adjusted to pH 6.0 with 1 M KOH) and acetonitrile at a ratio of 7:3 (v/v). The wavelength, flow rate, and injection volume were set to 220 nm, 1.0 mL/min, and 20 μL, respectively. The column and sample thermostats were set to 35 °C and 5 °C, respectively. In the case of the impurity study, the analysis was performed by changing the composition of the mobile phase for 80 min using a gradient elution method for 80 min.
# […] […] We performed a calibration test, and the sample was diluted with a diluted solution and prepared at a concentration of 0.05–1 mg/mL.
smiles,measurement,setting,value
"N[C@@H](CC(=O)N1CCn2c(nnc2C(F)(F)F)C1)Cc1cc(F)c(F)cc1F.O.O=P(O)(O)O [Sitagliptin, (R)-3-Amino-1-(3-(trifluoromethyl)-5,6-dihydro-[1,2,4]triazolo[4,3-a]pyrazin-7(8H)-yl)-4-(2,4,5-trifluorophenyl)butan-1-one phosphate monohydrate]",solubility thermodynamic at 12 h,"[1]; pH 1.2, aqueous buffer",1.94 mg/mL
same,solubility thermodynamic at 24 h,"[1]; pH 1.2, aqueous buffer",1.94 mg/mL
same,solubility thermodynamic at 12 h,"[1]; pH 2, aqueous buffer",3.11 mg/mL
same,solubility thermodynamic at 24 h,"[1]; pH 2, aqueous buffer",3.11 mg/mL
same,solubility thermodynamic at 12 h,"[1]; pH 3, aqueous buffer",1.7 mg/mL
same,solubility thermodynamic at 24 h,"[1]; pH 3, aqueous buffer",1.7 mg/mL
same,solubility thermodynamic at 12 h,"[1]; pH 4, aqueous buffer",1.61 mg/mL
same,solubility thermodynamic at 24 h,"[1]; pH 4, aqueous buffer",1.61 mg/mL
same,solubility thermodynamic at 12 h,"[1]; pH 5, aqueous buffer",1.51 mg/mL
same,solubility thermodynamic at 24 h,"[1]; pH 5, aqueous buffer",1.52 mg/mL
same,solubility thermodynamic at 12 h,"[1]; pH 6, aqueous buffer",1.16 mg/mL
same,solubility thermodynamic at 24 h,"[1]; pH 6, aqueous buffer",1.16 mg/mL
same,solubility thermodynamic at 12 h,"[1]; pH 6.8, aqueous buffer",2.67 mg/mL
same,solubility thermodynamic at 12 h,"[1]; pH 7, aqueous buffer",2.76 mg/mL
same,solubility thermodynamic at 24 h,"[1]; pH 7, aqueous buffer",2.76 mg/mL
same,solubility thermodynamic at 12 h,"[1]; pH 8, aqueous buffer",1.42 mg/mL
same,solubility thermodynamic at 24 h,"[1]; pH 8, aqueous buffer",1.43 mg/mL
same,solubility thermodynamic at 12 h,"[1]; pH 9, aqueous buffer",1.5 mg/mL
same,solubility thermodynamic at 24 h,"[1]; pH 9, aqueous buffer",1.5 mg/mL
same,solubility thermodynamic at 12 h,"[1]; pH 10, aqueous buffer",0.96 mg/mL
same,solubility thermodynamic at 24 h,"[1]; pH 10, aqueous buffer",0.97 mg/mL
same,solubility thermodynamic at 12 h,"[1]; pH 11, aqueous buffer",1.44 mg/mL
same,solubility thermodynamic at 24 h,"[1]; pH 11, aqueous buffer",1.44 mg/mL
same,solubility thermodynamic at 12 h,"[1]; pH 12, aqueous buffer",1.61 mg/mL
same,solubility thermodynamic at 24 h,"[1]; pH 12, aqueous buffer",1.6 mg/mL
same,solubility thermodynamic at 12 h,[1]; water,1.42 mg/mL
same,solubility thermodynamic at 24 h,[1]; water,1.42 mg/mL
same,biopharmaceutics classification system (BCS),[2],Class 1
same,bioavailability,[3],approximately 87%
same,Total Impurities,"[4]; 20 ± 2 °C/60 ± 5% RH, 2 Weeks",0.00%
same,Total Impurities,"[4]; 20 ± 2 °C/60 ± 5% RH, 4 Weeks",0.00%
same,Total Impurities,"[4]; 40 ± 2 °C/75 ± 5% RH, 2 Weeks",0.00%
same,Total Impurities,"[4]; 40 ± 2 °C/75 ± 5% RH, 4 Weeks",0.00%
same,Total Impurities,[4]; Initial,0.00%
same,Total Impurity,"[5]; pH 1.2 buffer, 20 ± 2 °C/60 ± 5% RH, 3 Days",0.01%
same,Total Impurity,"[5]; pH 1.2 buffer, 20 ± 2 °C/60 ± 5% RH, 7 Days",0.09%
same,Total Impurity,"[5]; pH 1.2 buffer, 40 ± 2 °C/75 ± 5% RH, 3 Days",0.02%
same,Total Impurity,"[5]; pH 1.2 buffer, 40 ± 2 °C/75 ± 5% RH, 7 Days",0.14%
same,Total Impurity,"[5]; pH 1.2 buffer, Initial",0.02%
same,Total Impurity,"[5]; pH 2.0 buffer, 20 ± 2 °C/60 ± 5% RH, 3 Days",0.03%
same,Total Impurity,"[5]; pH 2.0 buffer, 20 ± 2 °C/60 ± 5% RH, 7 Days",0.23%
same,Total Impurity,"[5]; pH 2.0 buffer, 40 ± 2 °C/75 ± 5% RH, 3 Days",0.08%
same,Total Impurity,"[5]; pH 2.0 buffer, 40 ± 2 °C/75 ± 5% RH, 7 Days",0.59%
same,Total Impurity,"[5]; pH 2.0 buffer, Initial",0.02%
same,Total Impurity,"[5]; pH 3.0 buffer, 20 ± 2 °C/60 ± 5% RH, 3 Days",0.08%
same,Total Impurity,"[5]; pH 3.0 buffer, 20 ± 2 °C/60 ± 5% RH, 7 Days",1.42%
same,Total Impurity,"[5]; pH 3.0 buffer, 40 ± 2 °C/75 ± 5% RH, 3 Days",0.37%
same,Total Impurity,"[5]; pH 3.0 buffer, 40 ± 2 °C/75 ± 5% RH, 7 Days",5.64%
same,Total Impurity,"[5]; pH 3.0 buffer, Initial",0.08%
same,Total Impurity,"[5]; pH 4.0 buffer, 20 ± 2 °C/60 ± 5% RH, 3 Days",0.00%
same,Total Impurity,"[5]; pH 4.0 buffer, 20 ± 2 °C/60 ± 5% RH, 7 Days",0.01%
same,Total Impurity,"[5]; pH 4.0 buffer, 40 ± 2 °C/75 ± 5% RH, 3 Days",0.00%
same,Total Impurity,"[5]; pH 4.0 buffer, 40 ± 2 °C/75 ± 5% RH, 7 Days",0.02%
same,Total Impurity,"[5]; pH 4.0 buffer, Initial",0.02%
same,Total Impurity,"[5]; pH 5.0 buffer, 20 ± 2 °C/60 ± 5% RH, 3 Days",0.00%
same,Total Impurity,"[5]; pH 5.0 buffer, 20 ± 2 °C/60 ± 5% RH, 7 Days",0.03%
same,Total Impurity,"[5]; pH 5.0 buffer, 40 ± 2 °C/75 ± 5% RH, 3 Days",0.00%
same,Total Impurity,"[5]; pH 5.0 buffer, 40 ± 2 °C/75 ± 5% RH, 7 Days",0.03%
same,Total Impurity,"[5]; pH 5.0 buffer, Initial",0.03%
same,Total Impurity,"[5]; pH 6.0 buffer, 20 ± 2 °C/60 ± 5% RH, 3 Days",0.00%
same,Total Impurity,"[5]; pH 6.0 buffer, 20 ± 2 °C/60 ± 5% RH, 7 Days",0.03%
same,Total Impurity,"[5]; pH 6.0 buffer, 40 ± 2 °C/75 ± 5% RH, 3 Days",0.01%
same,Total Impurity,"[5]; pH 6.0 buffer, 40 ± 2 °C/75 ± 5% RH, 7 Days",0.06%
same,Total Impurity,"[5]; pH 6.0 buffer, Initial",0.05%
same,Total Impurity,"[5]; pH 6.8 buffer, 20 ± 2 °C/60 ± 5% RH, 3 Days",0.01%
same,Total Impurity,"[5]; pH 6.8 buffer, 20 ± 2 °C/60 ± 5% RH, 7 Days",0.06%
same,Total Impurity,"[5]; pH 6.8 buffer, 40 ± 2 °C/75 ± 5% RH, 3 Days",0.00%
same,Total Impurity,"[5]; pH 6.8 buffer, 40 ± 2 °C/75 ± 5% RH, 7 Days",0.03%
same,Total Impurity,"[5]; pH 6.8 buffer, Initial",0.04%
same,Total Impurity,"[5]; pH 7.0 buffer, 20 ± 2 °C/60 ± 5% RH, 3 Days",0.00%
same,Total Impurity,"[5]; pH 7.0 buffer, 20 ± 2 °C/60 ± 5% RH, 7 Days",0.03%
same,Total Impurity,"[5]; pH 7.0 buffer, 40 ± 2 °C/75 ± 5% RH, 3 Days",0.00%
same,Total Impurity,"[5]; pH 7.0 buffer, 40 ± 2 °C/75 ± 5% RH, 7 Days",0.03%
same,Total Impurity,"[5]; pH 7.0 buffer, Initial",0.00%
same,Total Impurity,"[5]; pH 8.0 buffer, 20 ± 2 °C/60 ± 5% RH, 3 Days",0.01%
same,Total Impurity,"[5]; pH 8.0 buffer, 20 ± 2 °C/60 ± 5% RH, 7 Days",0.03%
same,Total Impurity,"[5]; pH 8.0 buffer, 40 ± 2 °C/75 ± 5% RH, 3 Days",0.00%
same,Total Impurity,"[5]; pH 8.0 buffer, 40 ± 2 °C/75 ± 5% RH, 7 Days",0.03%
same,Total Impurity,"[5]; pH 8.0 buffer, Initial",0.06%
same,Total Impurity,"[5]; pH 9.0 buffer, 20 ± 2 °C/60 ± 5% RH, 3 Days",0.00%
same,Total Impurity,"[5]; pH 9.0 buffer, 20 ± 2 °C/60 ± 5% RH, 7 Days",0.00%
same,Total Impurity,"[5]; pH 9.0 buffer, 40 ± 2 °C/75 ± 5% RH, 3 Days",0.00%
same,Total Impurity,"[5]; pH 9.0 buffer, 40 ± 2 °C/75 ± 5% RH, 7 Days",0.03%
same,Total Impurity,"[5]; pH 9.0 buffer, Initial",0.00%
same,Total Impurity,"[5]; pH 10.0 buffer, 20 ± 2 °C/60 ± 5% RH, 3 Days",0.00%
same,Total Impurity,"[5]; pH 10.0 buffer, 20 ± 2 °C/60 ± 5% RH, 7 Days",0.03%
same,Total Impurity,"[5]; pH 10.0 buffer, 40 ± 2 °C/75 ± 5% RH, 3 Days",0.00%
same,Total Impurity,"[5]; pH 10.0 buffer, 40 ± 2 °C/75 ± 5% RH, 7 Days",0.03%
same,Total Impurity,"[5]; pH 10.0 buffer, Initial",0.02%
same,Total Impurity,"[5]; pH 11.0 buffer, 20 ± 2 °C/60 ± 5% RH, 3 Days",0.00%
same,Total Impurity,"[5]; pH 11.0 buffer, 20 ± 2 °C/60 ± 5% RH, 7 Days",0.03%
same,Total Impurity,"[5]; pH 11.0 buffer, 40 ± 2 °C/75 ± 5% RH, 3 Days",0.00%
same,Total Impurity,"[5]; pH 11.0 buffer, 40 ± 2 °C/75 ± 5% RH, 7 Days",0.04%
same,Total Impurity,"[5]; pH 11.0 buffer, Initial",0.04%
same,Total Impurity,"[5]; pH 12.0 buffer, 20 ± 2 °C/60 ± 5% RH, 3 Days",0.00%
same,Total Impurity,"[5]; pH 12.0 buffer, 20 ± 2 °C/60 ± 5% RH, 7 Days",0.03%
same,Total Impurity,"[5]; pH 12.0 buffer, 40 ± 2 °C/75 ± 5% RH, 3 Days",0.00%
same,Total Impurity,"[5]; pH 12.0 buffer, 40 ± 2 °C/75 ± 5% RH, 7 Days",0.03%
same,Total Impurity,"[5]; pH 12.0 buffer, Initial",0.03%
